# Source: patent US20210330696A1, “A HIGH CAPACITY PLATFORM FOR IMMUNOGENIC CANCER CELL DEATH” (priority 2018, published 2021)
# B1: IL-12: Proinflammatory Th1 cytokine interleukin-12 (protein, UniProt P29459 23-219; P29460 23-328, looked up)
# Interleukin-12 subunit alpha: RNLPVATPDPGMFPCLHHSQNLLRAVSNMLQKARQTLEFYPCTSEEIDHEDITKDKTSTVEACLPLELTKNESCLNSRETSFITNGSCLASRKTSFMMALCLSSIYEDLKMYQVEFKTMNAKLLMDPKRQIFLDQNMLAVIDELMQALNFNSETVPQKSSLEEPDFYKTKIKLCILLHAFRIRAVTIDRVMSYLNAS
# Interleukin-12 subunit beta: IWELKKDVYVVELDWYPDAPGEMVVLTCDTPEEDGITWTLDQSSEVLGSGKTLTIQVKEFGDAGQYTCHKGGEVLSHSLLLLHKKEDGIWSTDILKDQKEPKNKTFLRCEAKNYSGRFTCWWLTTISTDLTFSVKSSRGSSDPQGVTCGAATLSAERVRGDNKEYEYSVECQEDSACPAAEESLPIEVMVDAVHKLKYENYTSSFFIRDIIKPDPPKNLQLKPLKNSRQVEVSWEYPDTWSTPHSYFSLTFCVQVQGKSKREKKDRVFTDKTSATVICRKNASISVRAQDRYYSSSWSEWASVPCS
# Key:
# [1] = cited from earlier work
# [2] = mouse, in vivo; cited from earlier work
# [3] = test system: glioblastoma cells; conditions: 2 h after injection; cited from earlier work
# [4] = test system: cancer cells; conditions: cited from earlier work
# [5] = test system: DNA; conditions: cited from earlier work
# [6] = test system: tumor immunocytes; experiment: tumor immunocytes by flow cytometry after IL-12; format: in vivo; conditions: 24 h after treatment
# Description: FIGS. 21A-B. Tumor immunocytes. A) Flow cytometry dot blots showing gating for myeloid and T cell populations. B) Percent immunocytes in control vs IL-12 treated tumors.
# Tumor phenotyping. Flow cytometry and immunohistochemistry are used to characterize PD-L1 expression and the presence of effector and regulatory T cells, myeloid and DC, vascularity and stromal cells in tumors and lymphatic tissue. Immunosuppressive regulators in the tumor include T regulatory (Treg) and […] (MDSC). Tregs (CD4^+/FoxP3^+) and MDSC [CD11b^+/Gr-1(Ly6-CIG)^+] suppress effective antitumor immune responses. CD4^+ and CD8^+ T cells are the primary adaptive immune cell mediators within the tumor and the proportion of T cell subsets and DC present in the tumor plays a critical role in tumor rejection. […] Single cell suspensions are prepared from tumors and spleen. After Fc receptor blockade with anti-CD16/CD32 antibodies in 1% mouse serum/1 mM EDTA, cells are permeabilized for intracellular staining or stained directly with antibodies identifying discrete immune cell populations, as described below. […] Specificity of binding to naïve or memory/effector cells is evaluated using fluorescent antibodies that recognize CD45RA, CCR7, and FOXP3. […] Apoptotic tumor cells are detected using DeadEnd Colorimetric TUNEL System, and proliferating cells will be identified using Ki-67. […]
# [7] = test system: 4T1 tumor; experiment: 19F MRI of 4T1 tumor infiltration by myeloid cells (V-Sense); format: in vivo; conditions: 48 h post intratumoral injection, compared to PBS
# Experimental: FIG. 17. MR imaging of 4T1 tumor infiltration by myeloid cells. The perfluorocarbon emulsion V-Sense was injected intravascularly and carrier macrophages were imaged by 19F MRI 48 h post control or IL-12 intraturrioral injection.
# V-sense is a commercial ^19F-perfluorocarbon emulsion used to track macrophage infiltration into inflammatory tissues. Ahrens et al. (2011) successfully quantified V-sense in inflamed tissues of the central nervous system in an […] model of allergic encephalomyelitis, which they correlated with immunohistochemistry to confirm co-localization of V-sense emulsion droplets and macrophages. Hitchens et al. (2011) detected V-sense labeled macrophages in a model of cardiac allograft rejection. In FIG. 12, the ^19F contrast in tumors is shown based on infiltration of V-sense containing macrophages. In vitro fluorescent imaging confirmed V-sense (red) uptake by RAW macrophages (FIG. 15). […] The color spectrum indicates the concentration of V-sense, which is analogous to phagocytic myeloid cell density.
molecule,measurement,setting,value
"COc1cccc2c1C(=O)c1c(O)c3c(c(O)c1C2=O)C[C@@](O)(C(=O)CO)C[C@@H]3O[C@H]1C[C@H](N)[C@H](O)[C@H](C)O1 [DOX, doxorubicin]",IC50,[1],0.08 µg/mL
same,MTD,[2],6 mg/kg
"O=c1[nH]c(=O)n([C@@H]2O[C@H](CO)[C@@H](O)[C@@H]2F)cc1[124I] [^124I-FIAU, ^124I-2′-fluoro-2′-deoxy-5-iodo-1-beta-D-arabinofurariosyluracil]",increase in reporter expression,[3],28 fold
"N.N.[Cl][Pt][Cl] [cisplatin, cis-diamminedichloroplatinum (II)]",number of ICD hallmarks stimulated,[4],2
same,DNA adduct formation relative to oxaliplatin,[5],10 times
B1,CD4+ and CD8+ T cells in the tumor,[6],increases CD4^+ and CD8^+ T cells
same,MDSC in the tumor,[6],decreases MDSC
same,frequency of phagocytic cells within the tumor periphery,[7],increased the frequency of phagocytic cells
